Experimental data published in ChEMBL document CHEMBL2034904, “A new series of N5 derivatives of the 1,1,5-trimethyl furo[3,4-c]pyridine-3,4-dione (cerpegin) selectively inhibits the post-acid activity of mammalian 20S proteasomes” (Bioorg Med Chem Lett, 2012).
Calls of active or inactive are those of the source. The calls are words filed in the database; no cut-off is given here.

Tests used:
[1] = biological target: Cathepsin B (Homo sapiens) (UniProt P07858); test: Inhibition of cathepsin B from human hepatocytes using […] as substrate; conditions: Hepatocyte
Oryctolagus cuniculus [2] = species on record: Oryctolagus cuniculus; test: Inhibition of trypsin-like activity of 20S proteasome catalytic core from rabbit erythrocytes using Boc-LRR-AMC as substrate at 100 uM preincubated for 15 mins prior to substrate addition measured after 45 mins
Oryctolagus cuniculus [3] = species on record: Oryctolagus cuniculus; test: Inhibition of caspase-like activity of 20S proteasome catalytic core from rabbit erythrocytes using Z-LLE-NA as substrate at 100 uM preincubated for 15 mins prior to substrate addition measured after 45 mins
Homo sapiens [4] = species on record: Homo sapiens; test: Inhibition of calpain-1 from human erythrocytes using […] as substrate
Oryctolagus cuniculus [5] = species on record: Oryctolagus cuniculus; test: Inhibition of chymotrypsin-like activity of 20S proteasome catalytic core from rabbit erythrocytes using Suc-LLVY-AMC as substrate at 100 uM preincubated for 15 mins prior to substrate addition measured after 45 mins
Homo sapiens [6] = species on record: Homo sapiens; test: Inhibition of trypsin-like activity of 20S proteasome catalytic core from human erythrocytes using Boc-LRR-AMC as substrate at 100 uM preincubated for 15 mins prior to substrate addition measured after 45 mins
[7] = Inhibition of caspase-like activity of 20S proteasome catalytic core from human erythrocytes using Z-LLE-NA as substrate preincubated for 15 mins prior to substrate addition measured after 45 mins
Homo sapiens [8] = species on record: Homo sapiens; test: (§1) Inhibition of chymotrypsin-like activity of 20S proteasome catalytic core from human erythrocytes using Suc-LLVY-AMC as substrate preincubated for 15 mins prior to substrate addition measured after 45 mins
[9] = Inhibition of caspase-like activity of 20S proteasome catalytic core from rabbit erythrocytes using Z-LLE-NA as substrate preincubated for 15 mins prior to substrate addition measured after 45 mins; design: species or system Oryctolagus cuniculus
Homo sapiens [10] = species on record: Homo sapiens; test: (§2) Inhibition of trypsin-like activity of 20S proteasome catalytic core from human erythrocytes using Boc-LRR-AMC as substrate preincubated for 15 mins prior to substrate addition measured after 45 mins
[11] = Inhibition of trypsin-like activity of 20S proteasome catalytic core from rabbit erythrocytes using Boc-LRR-AMC as substrate preincubated for 15 mins prior to substrate addition measured after 45 mins; design: species or system Oryctolagus cuniculus
Oryctolagus cuniculus [12] = species on record: Oryctolagus cuniculus; test: Irreversible inhibition of rabbit 20S proteasome chymotrypsin-like activity using […] as substrate at 10 to 50 uM from 5 to 60 mins
[13] = Inhibition of chymotrypsin-like activity of 20S proteasome catalytic core from rabbit erythrocytes using Suc-LLVY-AMC as substrate preincubated for 15 mins prior to substrate addition measured after 45 mins; design: species or system Oryctolagus cuniculus
[14] = as §1
[15] = as §2
Oryctolagus cuniculus [16] = species on record: Oryctolagus cuniculus; test: Inhibition of rabbit 20S proteasome chymotrypsin-like activity using […] as substrate at 10 to 50 uM; conditions: TDE = time-dependent effect

Compound | inhibition [1] | inhibition (Oryctolagus cuniculus [2]) | inhibition (Homo sapiens [4]) | inhibition (Oryctolagus cuniculus [5]) | IC50 [9] | also measured
CN(C)CCn1ccc2c(c1=O)C(=O)OC2(C)C | inactive | inactive | inactive | inactive | – | inhibition (Oryctolagus cuniculus [3]): 50%
CC1(C)OC(=O)c2c1ccn(CCc1ccccc1)c2=O | inactive | 22.6% | inactive | inactive | 48.7 µM | inhibition (Homo sapiens [6]): 25.3%; IC50 [7]: 45.7 µM; inhibition (Homo sapiens [8]): inactive
CC1(C)OC(=O)c2c1ccn(CC(O)CN1CCOCC1)c2=O (stereo unspecified) | inactive | 42.5% | inactive | inactive | – | inhibition (Oryctolagus cuniculus [3]): inactive
CC1(C)OC(=O)c2c1ccn(CCCN1CCCC1)c2=O | inactive | inactive | inactive | inactive | 11.4 µM | –
CC1(C)OC(=O)c2c1ccn(CC(O)CN1CCN(Cc3ccccc3)CC1)c2=O (stereo unspecified) | inactive | inactive | inactive | inactive | 69.8 µM | –
CC1(C)OC(=O)c2c1ccn(CCc1c[nH]c3ccccc13)c2=O | inactive | inactive | inactive | inactive | – | inhibition (Oryctolagus cuniculus [3]): 23.7%
CC1(C)OC(=O)c2c1ccn(CC(O)COc1ccccc1)c2=O (stereo unspecified) | inactive | 33.3% | inactive | inactive | 39.7 µM | –
CC1(C)OC(=O)c2c1ccn(CCc1ccc(O)cc1)c2=O | inactive | inactive | inactive | 38.2% | – | inhibition (Oryctolagus cuniculus [3]): 21.7%
CC1(C)OC(=O)c2c1ccn(CCc1ccc(F)cc1)c2=O | inactive | inactive | inactive | inactive | 39.8 µM | –
CC1(C)OC(=O)c2c1ccn(CCCN1CCOCC1)c2=O | inactive | inactive | inactive | inactive | 71.9 µM | –
CC1(C)OC(=O)c2c1ccn(CCc1ccc(Cl)cc1)c2=O | inactive | 50% | inactive | inactive | 20.1 µM | –
CC1(C)OC(=O)c2c1ccn(Cc1ccc(Cl)cc1Cl)c2=O | inactive | inactive | inactive | inactive | 29.3 µM | –
CC1(C)OC(=O)c2c1ccn(CCCn1ccnc1)c2=O | inactive | inactive | inactive | inactive | 76.8 µM | –
COc1ccc(CCn2ccc3c(c2=O)C(=O)OC3(C)C)cc1 | inactive | inactive | inactive | inactive | – | inhibition (Oryctolagus cuniculus [3]): inactive
CCOC(=O)Cn1ccc2c(c1=O)C(=O)OC2(C)C | inactive | inactive | inactive | inactive | 13.3 µM | –
CC1(C)OC(=O)c2c1ccn(CCO)c2=O | inactive | inactive | inactive | inactive | 12.1 µM | –
CC1(C)OC(=O)c2c1ccn(CCNc1ccc([N+](=O)[O-])cn1)c2=O | inactive | inactive | inactive | inactive | – | inhibition (Oryctolagus cuniculus [3]): 23.4%

The remaining compounds from weak to strong by IC50 [9], led by results:

inhibition [1] | inhibition (Oryctolagus cuniculus [2]) | inhibition (Homo sapiens [4]) | inhibition (Oryctolagus cuniculus [5]) | IC50 [9] | Compound | also measured
inactive | – | inactive | – | 10.7 µM | CC1(C)OC(=O)c2c1ccn(NC(N)=S)c2=O | inhibition (Oryctolagus cuniculus [12]): Active; IC50 [7]: 9.7 µM; IC50 [13]: 8 µM; IC50 [11]: 10.1 µM; IC50 [14]: 8.4 µM; IC50 [15]: 10.2 µM; inhibition (Oryctolagus cuniculus [16]): tde
inactive | inactive | inactive | inactive | 10.4 µM | Cn1ccc2c(c1=O)C(=O)OC2(C)C [CERPEGIN] | –
inactive | inactive | inactive | inactive | 8.4 µM | CC1(C)OC(=O)c2c1ccn(Cc1cccc(C(F)(F)F)c1)c2=O | –
inactive | 20% | inactive | 21% | 7.1 µM | CC1(C)OC(=O)c2c1ccn(Cc1ccc(Cl)cc1)c2=O | –
inactive | inactive | inactive | inactive | 7 µM | CC1(C)OC(=O)c2c1ccn(Cc1ccncc1)c2=O | IC50 [7]: 7.9 µM; inhibition (Homo sapiens [8]): inactive; inhibition (Homo sapiens [10]): inactive
inactive | – | inactive | inactive | 6.1 µM | CCN(CC)CC(O)Cn1ccc2c(c1=O)C(=O)OC2(C)C (stereo unspecified) | IC50 [11]: 90 µM
inactive | inactive | inactive | inactive | 6.1 µM | CC1(C)OC(=O)c2c1ccn(CC(O)CN1CCCCC1)c2=O (stereo unspecified) | –
inactive | inactive | inactive | inactive | 5.9 µM | C=CCOCC(O)Cn1ccc2c(c1=O)C(=O)OC2(C)C (stereo unspecified) | –
inactive | inactive | inactive | inactive | 5.5 µM | CC1(C)OC(=O)c2c1ccn(CCc1ccc(S(N)(=O)=O)cc1)c2=O | –
inactive | 51.5% | inactive | inactive | 5.2 µM | CC1(C)OC(=O)c2c1ccn(CC(O)c1ccccc1)c2=O (stereo unspecified) | –
inactive | inactive | inactive | inactive | 4.9 µM | CC1(C)OC(=O)c2c1ccn(CC(O)CO)c2=O (stereo unspecified) | –
inactive | 40% | inactive | inactive | 4.9 µM | CC1(C)OC(=O)c2c1ccn(CCc1ccccc1Cl)c2=O | –
